Measurements reported in ChEMBL document CHEMBL5465560, “Selectivity Literature for EUbOPEN Chemogenomic Library” (2024).

Tests used:
[1] = target: T1, Inhibitor of nuclear factor kappa-B kinase subunit beta (Homo sapiens) (UniProt O14920); assay: Selectivity interaction (SelectScreen profiling (Invitrogen)) EUB0000607a IKBKB; conditions: at 2 µM
T1 sequence (whole entry): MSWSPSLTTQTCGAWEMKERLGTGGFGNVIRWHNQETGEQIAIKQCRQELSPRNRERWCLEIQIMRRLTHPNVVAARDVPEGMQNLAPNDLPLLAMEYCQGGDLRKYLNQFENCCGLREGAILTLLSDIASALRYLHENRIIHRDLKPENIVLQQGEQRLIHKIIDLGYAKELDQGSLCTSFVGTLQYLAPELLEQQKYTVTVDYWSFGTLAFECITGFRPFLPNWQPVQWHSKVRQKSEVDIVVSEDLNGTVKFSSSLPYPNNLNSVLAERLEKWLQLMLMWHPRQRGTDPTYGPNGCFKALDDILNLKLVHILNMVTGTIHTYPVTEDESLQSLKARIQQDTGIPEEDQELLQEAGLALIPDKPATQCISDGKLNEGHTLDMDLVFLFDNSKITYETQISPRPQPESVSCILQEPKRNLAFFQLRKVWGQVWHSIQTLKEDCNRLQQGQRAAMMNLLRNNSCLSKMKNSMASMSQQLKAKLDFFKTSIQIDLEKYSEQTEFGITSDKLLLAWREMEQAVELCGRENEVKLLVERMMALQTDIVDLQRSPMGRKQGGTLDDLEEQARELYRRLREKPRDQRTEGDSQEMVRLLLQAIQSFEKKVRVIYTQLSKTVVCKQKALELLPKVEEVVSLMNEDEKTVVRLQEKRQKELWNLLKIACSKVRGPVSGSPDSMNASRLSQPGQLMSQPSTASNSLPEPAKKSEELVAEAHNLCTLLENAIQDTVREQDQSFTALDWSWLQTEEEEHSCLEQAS

[2] = target: Mitogen-activated protein kinase kinase kinase 10 (Homo sapiens) (UniProt Q02779); assay: Selectivity interaction (KinomeScan (DiscoverX)) EUB0000045b MAP3K10
[3] = target: T2, Protein kinase C epsilon type (Homo sapiens) (UniProt Q02156); assay: Selectivity interaction (KinomeScan (DiscoverX)) EUB0000229b PRKCE; conditions: at 10 µM
T2 sequence (whole entry): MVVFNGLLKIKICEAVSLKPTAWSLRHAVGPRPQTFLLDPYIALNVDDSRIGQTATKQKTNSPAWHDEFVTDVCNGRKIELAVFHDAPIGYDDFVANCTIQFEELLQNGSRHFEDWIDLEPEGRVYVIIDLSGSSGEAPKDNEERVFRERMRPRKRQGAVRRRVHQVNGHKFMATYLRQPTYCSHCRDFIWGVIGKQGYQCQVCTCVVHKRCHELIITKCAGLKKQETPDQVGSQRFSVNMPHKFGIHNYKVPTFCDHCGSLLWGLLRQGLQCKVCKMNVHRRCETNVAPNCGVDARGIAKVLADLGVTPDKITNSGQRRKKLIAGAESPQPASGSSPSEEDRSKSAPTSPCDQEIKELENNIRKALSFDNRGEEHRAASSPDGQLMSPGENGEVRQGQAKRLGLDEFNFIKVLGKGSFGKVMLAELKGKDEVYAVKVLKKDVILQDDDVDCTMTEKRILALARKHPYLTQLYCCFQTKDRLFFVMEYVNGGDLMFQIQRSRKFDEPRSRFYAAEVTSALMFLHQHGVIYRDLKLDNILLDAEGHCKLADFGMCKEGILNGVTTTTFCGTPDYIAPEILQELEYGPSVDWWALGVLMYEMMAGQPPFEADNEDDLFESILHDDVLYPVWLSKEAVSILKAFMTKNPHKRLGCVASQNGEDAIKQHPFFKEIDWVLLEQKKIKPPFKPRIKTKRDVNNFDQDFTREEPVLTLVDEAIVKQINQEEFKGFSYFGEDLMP

[4] = target: 3',5'-cyclic-AMP phosphodiesterase 4A (Homo sapiens, UniProt P27815); assay: Selectivity interaction (Enzyme panel (AstraZeneca, AlphaScreen, functional assay)) EUB0000621a PDE4A
[5] = target: T3, Discoidin domain-containing receptor 2 (Homo sapiens) (UniProt Q16832); assay: Selectivity interaction (KinomeScan (DiscoverX)) EUB0000618a DDR2; conditions: at 10 µM
T3 sequence (whole entry): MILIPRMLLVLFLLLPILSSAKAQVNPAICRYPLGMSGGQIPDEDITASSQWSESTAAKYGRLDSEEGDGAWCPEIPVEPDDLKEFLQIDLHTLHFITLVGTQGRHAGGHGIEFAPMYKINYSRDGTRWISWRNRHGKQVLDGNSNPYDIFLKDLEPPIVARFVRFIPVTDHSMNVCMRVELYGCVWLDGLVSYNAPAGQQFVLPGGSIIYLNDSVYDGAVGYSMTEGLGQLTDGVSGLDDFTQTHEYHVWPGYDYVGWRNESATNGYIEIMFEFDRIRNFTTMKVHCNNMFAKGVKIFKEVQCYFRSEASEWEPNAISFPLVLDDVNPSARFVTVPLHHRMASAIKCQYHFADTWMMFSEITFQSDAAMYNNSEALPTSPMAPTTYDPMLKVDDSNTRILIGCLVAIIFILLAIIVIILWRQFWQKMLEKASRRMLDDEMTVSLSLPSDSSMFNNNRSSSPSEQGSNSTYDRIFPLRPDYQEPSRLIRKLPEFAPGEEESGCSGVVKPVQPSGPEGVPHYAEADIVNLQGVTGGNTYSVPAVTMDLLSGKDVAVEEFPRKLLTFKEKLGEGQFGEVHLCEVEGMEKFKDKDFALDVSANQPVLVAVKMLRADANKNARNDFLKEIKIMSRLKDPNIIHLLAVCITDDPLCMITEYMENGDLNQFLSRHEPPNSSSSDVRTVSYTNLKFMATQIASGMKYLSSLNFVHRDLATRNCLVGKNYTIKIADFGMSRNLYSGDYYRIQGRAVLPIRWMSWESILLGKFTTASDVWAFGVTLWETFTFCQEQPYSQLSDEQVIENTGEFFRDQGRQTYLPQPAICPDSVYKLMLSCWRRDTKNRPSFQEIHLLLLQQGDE

Chain of Mitogen-activated protein kinase kinase kinase 10 (Homo sapiens) (Q02779 whole entry, looked up): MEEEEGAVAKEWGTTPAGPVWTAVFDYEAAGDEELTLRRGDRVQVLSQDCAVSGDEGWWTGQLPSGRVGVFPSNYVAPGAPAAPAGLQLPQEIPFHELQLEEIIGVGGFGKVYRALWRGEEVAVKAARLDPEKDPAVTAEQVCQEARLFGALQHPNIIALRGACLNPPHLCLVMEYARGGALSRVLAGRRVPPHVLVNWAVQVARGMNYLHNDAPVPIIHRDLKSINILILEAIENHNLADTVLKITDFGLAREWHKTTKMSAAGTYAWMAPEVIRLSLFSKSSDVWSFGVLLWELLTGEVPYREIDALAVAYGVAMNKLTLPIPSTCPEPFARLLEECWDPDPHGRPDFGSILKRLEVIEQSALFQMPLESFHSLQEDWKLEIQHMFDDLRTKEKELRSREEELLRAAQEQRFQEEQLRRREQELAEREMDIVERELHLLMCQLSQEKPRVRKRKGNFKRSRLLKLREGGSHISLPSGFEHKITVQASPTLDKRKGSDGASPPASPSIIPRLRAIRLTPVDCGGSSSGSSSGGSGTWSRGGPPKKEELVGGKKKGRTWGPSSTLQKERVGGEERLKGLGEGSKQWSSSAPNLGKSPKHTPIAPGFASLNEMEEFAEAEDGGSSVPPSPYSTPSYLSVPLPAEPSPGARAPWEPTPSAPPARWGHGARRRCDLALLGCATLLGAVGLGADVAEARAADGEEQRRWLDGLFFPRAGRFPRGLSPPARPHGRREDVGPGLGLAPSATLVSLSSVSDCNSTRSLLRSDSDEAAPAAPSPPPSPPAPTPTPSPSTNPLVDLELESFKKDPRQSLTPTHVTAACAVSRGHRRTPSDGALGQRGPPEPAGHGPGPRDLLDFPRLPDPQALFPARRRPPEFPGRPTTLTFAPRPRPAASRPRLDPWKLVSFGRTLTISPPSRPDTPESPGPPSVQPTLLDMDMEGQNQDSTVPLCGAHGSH
Chain of 3',5'-cyclic-AMP phosphodiesterase 4A (P27815 whole entry, the tested form may be a part): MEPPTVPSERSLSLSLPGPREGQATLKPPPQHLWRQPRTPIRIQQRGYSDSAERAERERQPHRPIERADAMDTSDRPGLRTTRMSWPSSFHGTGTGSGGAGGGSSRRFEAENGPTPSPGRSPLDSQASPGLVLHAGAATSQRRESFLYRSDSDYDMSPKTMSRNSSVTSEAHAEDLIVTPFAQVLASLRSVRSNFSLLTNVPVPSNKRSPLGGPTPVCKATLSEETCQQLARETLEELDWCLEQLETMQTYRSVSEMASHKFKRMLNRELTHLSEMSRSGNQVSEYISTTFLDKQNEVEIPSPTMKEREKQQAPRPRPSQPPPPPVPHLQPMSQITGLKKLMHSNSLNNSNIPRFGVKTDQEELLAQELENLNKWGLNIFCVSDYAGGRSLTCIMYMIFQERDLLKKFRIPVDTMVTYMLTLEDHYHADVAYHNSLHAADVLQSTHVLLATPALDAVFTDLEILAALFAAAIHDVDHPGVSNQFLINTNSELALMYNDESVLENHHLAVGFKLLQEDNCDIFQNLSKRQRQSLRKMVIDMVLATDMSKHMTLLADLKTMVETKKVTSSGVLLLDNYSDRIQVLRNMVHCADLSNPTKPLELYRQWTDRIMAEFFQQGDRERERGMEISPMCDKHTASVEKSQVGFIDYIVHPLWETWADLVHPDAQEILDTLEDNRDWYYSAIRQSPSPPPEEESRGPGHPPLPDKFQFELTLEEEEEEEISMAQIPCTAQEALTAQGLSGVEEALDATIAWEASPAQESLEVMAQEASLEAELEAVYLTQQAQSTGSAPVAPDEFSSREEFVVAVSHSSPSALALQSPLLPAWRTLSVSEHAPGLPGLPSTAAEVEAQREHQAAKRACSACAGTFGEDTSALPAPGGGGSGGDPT

Molecule `CNC(=O)Nc1ccc(-c2nc(N3CC4CCC(C3)O4)c3cnn(C4CCC5(CC4)OCCO5)c3n2)cc1` has a % of inhibition [1] of -5%.
For `C=CC(=O)Nc1cc(-n2c(=O)ccc3cnc4ccc(-c5ccc(NS(C)(=O)=O)cc5)cc4c32)ccc1C`, the % of control ([2]; at 1 µM) was 100% and the % of control ([2]; at 10 µM) was 100%.
With `COc1cc(N(C)c2ccnc3ccc(C(F)(F)F)cc23)cc(OC)c1OC` the % binding [3] was 55%.
With `Cc1cc([C@@H](C)Nc2ccccc2C(=O)O)c2nc(N3CCOCC3)cc(=O)n2c1` [AZD-6482] the IC50 [4] was 17 µM.
`O[C@H]1CC[C@H](Nc2ncc3nc(Nc4c(F)cc(F)cc4F)n([C@H]4CCOC4)c3n2)CC1` was tested, and the % of control [5] was 89%.
